One test relates to H2171 cells. The experiment in a line: Cell viability assay (ATPlite), H2171. The format is cell-based, human. Conditions: cell viability, three days, ATPlite, NA: inactive under assay conditions. How it is done: (§1) This assay was used for the H2171 and MM1S cell data shown in Table 2, and for the Jurkat (an immortalized line of human T lymphocyte cells), Ly1 (OCI-Ly1 human non-Hodgkin lymphoma cell line), Ly4 (OCI-Ly4 human non-Hodgkin lymphoma cell line), H2172 (NCI-H2172 human non-small cell lung cancer cell line), and CA-46 (a human Burkitt's lymphoma cell line) cell data shown in Table 3 and FIG. 12. Cells were counted and adjusted to 60,000 cells/mL. Using a Biotek EL406, 50 μL of cells are media were distributed into 384 well white plates from Thermo. Immediately after plating, compound in DMSO was distributed to plates. For large plate sets, cells were returned to 37° C. incubator while not in use.
(§2) Compounds were added to plates using a 100 nL 384 well pin transfer manifold on a Janus workstation. Stocks were arrayed in 10 point quadruplicate dose response in DMSO stock in 384 well Greiner compound plates. After addition of compound, plates were incubated for three days in a 37° C. incubator.
(§3) Cell viability was read out using ATPlite from Perkin Elmer. Plates were removed from the incubator and brought to room temperature prior to use. Lyophilized powder was resuspended in lysis buffer and diluted 1:2 with DI water. 25 μL of this solution was added to each well using the Biotek liquid handler. Plates were sealed with adherent aluminum seals prior to vortexing and spinning down at 1000 g for 1 minute. Plates were incubated for 15 minutes at room temperature before signal was read on an Envision Plate Reader.

Another test addresses c-Myc/Max/Ebox DNA (Homo sapiens, UniProt P01106). As to the kind of experiment: c-Myc/Max/Ebox DNA AlphaScreen assay. It counts as binding. The arrangement: An exemplary assay uses full-length human c-Myc and Max proteins; his6 (cleaved yes); made in house. Conditions: c-Myc/Max/Ebox DNA AlphaScreen; NA: inactive under assay conditions; read-out: Biochemical IC50. How it is done: This protocol was used to generate the biochemical data in Table 2 and FIG. 11. The primary AlphaScreen assay is amenable to 384-well and 1536-well plate formats for HTS. Human his6-c-Myc and his6-Max were used with biotinylated DNA containing a single Ebox sequence (biotin[…]) purchased from MWG Operon. Free c-Myc was generated from his6-c-Myc through thrombin cleavage of the his6 tag. For 384-well plate assays, 10 μL of a 2× solution of free c-Myc (25 nM final), Ni++-coated Acceptor Bead (25 μg/ml final), and biotinylated Ebox oligo (10 nM final) were added to 384-well plates with a Biotek EL406 liquid handler. 100 nL of compounds from stock plates were added by pin transfer using a Janus Workstation (PerkinElmer), allowing the compounds to interact with c-Myc prior to c-Myc binding with Max. In the current assay, DMSO was not allowed to exceed 2% v/v of the assay. 10 μl of 2× master mix containing streptavidin-coated donor beads (25 μg/ml final) and his6-Max (1.25 nM final) were added. AlphaScreen measurements were performed on an Envision 2104 (PerkinElmer) utilizing the manufacturer's protocol. The assay can also be performed in 1536-plate format with 8 μL total volume using two 4 μL additions (instead of […] and 10 μL respectively).
Assays are performed with minor modifications from the manufacturer's protocol (PerkinElmer). Both master mixes were made in room temperature assay buffer (50 mM HEPES, 150 mM NaCl, 0.2% w/v BSA, 0.02% w/v Tween20, 40 μg/ml glycogen, 500 μM DTT, pH 8.0, DTT and glycogen added fresh). Alpha beads were added to respective master solutions and wrapped in foil. All subsequent steps were performed in low light conditions. Solution 1: 2× solution of components with final concentrations of cMyc (25 nM), Ni-coated Acceptor Bead (25 μg/ml), and biotinylated Ebox oligo (10 nM). Solution 2: 2× solution of streptavidin-coated donor beads (25 μg/ml final) and his6-Max (1.25 nM final). […] Solution 1 were added to 384-well plate (AlphaPlate-384, PerkinElmer) with Biotek EL406 liquid handler and the plates were centrifuged at 1000 rpm for 1 minute. 100 nL of compounds from stock plates were added by pin transfer using a Janus Workstation. 10 μL Solution 2 were added with the liquid handler. Plates were sealed with foil to block light exposure and prevent evaporation. Plates were centrifuged at 1000 rpm for 1 minute followed by 2 hour incubation. AlphaScreen measurements were performed on an Envision 2104 utilizing the manufacturer's protocol. Excitation was at 680 nm for donor bead release of singlet oxygen and emission was read with a bandpass filter from 520-620 nm. Glycogen: Roche Diagnostics #10901393001. Plate 1536: Perkin Elmer, 6004350. Plate 384: Perkin Elmer, 6005350. Nickel-His Alpha Beads: 6760619R.

In another test the test system is MM1S cells. As to the kind of experiment: Cell viability assay (ATPlite), MM1S. It counts as cell-based, human. The note with it: cell viability, three days, ATPlite, NA: inactive under assay conditions. How it is done:
as §1, §2, §3

Chain of c-Myc/Max/Ebox DNA (P01106 16-454): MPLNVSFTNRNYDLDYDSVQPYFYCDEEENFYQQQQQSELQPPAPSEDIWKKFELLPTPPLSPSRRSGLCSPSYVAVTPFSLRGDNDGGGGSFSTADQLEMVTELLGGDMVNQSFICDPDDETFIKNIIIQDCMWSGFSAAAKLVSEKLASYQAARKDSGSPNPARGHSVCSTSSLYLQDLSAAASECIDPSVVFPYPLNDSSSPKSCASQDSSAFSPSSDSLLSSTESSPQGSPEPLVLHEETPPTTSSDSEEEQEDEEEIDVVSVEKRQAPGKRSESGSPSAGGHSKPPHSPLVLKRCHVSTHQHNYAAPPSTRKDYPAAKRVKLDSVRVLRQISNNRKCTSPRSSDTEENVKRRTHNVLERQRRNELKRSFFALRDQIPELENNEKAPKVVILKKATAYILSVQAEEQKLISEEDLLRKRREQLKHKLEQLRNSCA

In the case of `Cc1ccc(C)n1-c1cc(C(=O)N/N=C/c2ccc3c(c2)OCCN3C)ccc1C(=O)O` [Compound 89], the EC50 in the test with H2171 cells (Homo sapiens, NCI-H2171, 72 h) is 198 µM; in the test on MM1S cells (Homo sapiens, MM1.S, 72 h), 92.4 µM. The IC50 at c-Myc/Max/Ebox DNA came to 38 µM.
With `Cc1ccc(C)n1-c1cc(C(=O)N/N=C/c2cc(C(F)(F)F)cc(C(F)(F)F)c2)ccc1C(=O)O` [Compound 98], the EC50 came out at 24100 µM in the test on H2171 cells (Homo sapiens, NCI-H2171, 72 h) and 5170 µM in the test with MM1S cells (Homo sapiens, MM1.S, 72 h). At c-Myc/Max/Ebox DNA, the IC50 turned out to be 3.84 µM.
On the same counts, the results for `Cc1ccc(C)n1-c1cc(C(=O)N/N=C/c2ccc(F)c(F)c2)ccc1C(=O)O` [Compound 99] are 106 µM, 492 µM and 4.82 µM.
In the case of `Cc1ccc(C)n1-c1ccc(C(=O)O)c(O)c1` [Compound 127], the EC50 in the test on H2171 cells and in the test with MM1S cells was 517 µM throughout. In addition, the IC50 at c-Myc/Max/Ebox DNA turned out to be 53.3 µM.
With `Cc1ccc(C)n1-c1ccccc1S(=O)(=O)O` [Compound 128], the EC50 in the test on H2171 cells (Homo sapiens, NCI-H2171, 72 h) came out at 303 µM; in the test on MM1S cells (Homo sapiens, MM1.S, 72 h), 243 µM. On c-Myc/Max/Ebox DNA, the IC50 was determined as 252 µM.
For the compound `Cc1ccc(C)n1-c1cc2ccccc2cc1C(=O)O` [Compound 129], the EC50 in the test with H2171 cells (Homo sapiens, NCI-H2171, 72 h) came out at 151 µM; with MM1S cells (Homo sapiens, MM1.S, 72 h) it was 264 µM. In addition, at c-Myc/Max/Ebox DNA, the IC50 stood at 31 µM.
As for `Cc1cc(Br)c(-n2c(C)ccc2C)c(C(=O)O)c1` [Compound 130], the EC50 in the test on H2171 cells (Homo sapiens, NCI-H2171, 72 h) is 224 µM; in the test with MM1S cells (Homo sapiens, MM1.S, 72 h) it was 300 µM. On c-Myc/Max/Ebox DNA, the IC50 worked out at 51.5 µM.
For the compound `Cc1c(C)c(C)n(-c2ccc(C(=O)O)c(O)c2)c1C` [Compound 139], the EC50 in the test on H2171 cells (Homo sapiens, NCI-H2171, 72 h) amounted to 564 µM; in the test on MM1S cells (Homo sapiens, MM1.S, 72 h), 329 µM. Besides, on c-Myc/Max/Ebox DNA, the IC50 worked out at 96.4 µM.
For the compound `CC(=O)OCOC(=O)c1ccc(-n2c(C)ccc2C)cc1O` [Compound 143], the results for the EC50 in the test with H2171 cells and with MM1S cells were 66.1 µM and 161 µM, respectively. Also, the IC50 at c-Myc/Max/Ebox DNA was determined as 91.4 µM.
For the compound `COc1cc(C(=O)O)c(-n2c(C)ccc2C)cc1OC` [Compound 145], the EC50 in the test on H2171 cells (Homo sapiens, NCI-H2171, 72 h) amounted to 83.8 µM; in the test with MM1S cells (Homo sapiens, MM1.S, 72 h), 161 µM. Besides, the IC50 on c-Myc/Max/Ebox DNA was 13.5 µM.
For the compound `Cc1ccc(-c2ccc(-n3c(C)ccc3C)c(C(=O)O)c2)cc1` [Compound 148], the EC50 turned out to be 268 µM with H2171 cells (Homo sapiens, NCI-H2171, 72 h) and 1690 µM in the test on MM1S cells (Homo sapiens, MM1.S, 72 h). In addition, the half-inhibitory concentration (IC50) on c-Myc/Max/Ebox DNA came to 941 µM.
Consider `CC(=O)OCOC(=O)c1ccccc1-n1c(C)ccc1C` [Compound 149], for which the EC50 in the test with H2171 cells was determined as 20.7 µM; in the test on MM1S cells it was 71.4 µM. Also, at c-Myc/Max/Ebox DNA, the IC50 was 101 µM.
With `CC(=O)OCOC(=O)c1ccccc1-n1cccc1` [Compound 150], the EC50 with H2171 cells (Homo sapiens, NCI-H2171, 72 h) is 28 µM; in the test with MM1S cells (Homo sapiens, MM1.S, 72 h) it was 99.1 µM. The IC50 on c-Myc/Max/Ebox DNA came to 150 µM.
Regarding `CC(=O)OCOC(=O)c1ccccc1N1CCOCC1` [Compound 152], the EC50 with H2171 cells (Homo sapiens, NCI-H2171, 72 h) was 22.8 µM; in the test on MM1S cells (Homo sapiens, MM1.S, 72 h), 71.9 µM. Besides, on c-Myc/Max/Ebox DNA, the IC50 was 2480 µM.
For `Cc1cccc(Nc2ccccc2C(=O)O)c1C` [Compound 153], in that order: 93.5 µM, 185 µM and 403 µM.
As for `CC(=O)Nc1ccc(-n2c(C)ccc2C)c(C(=O)O)c1` [Compound 155], the EC50 came out at 247 µM with H2171 cells (Homo sapiens, NCI-H2171, 72 h) and 222 µM with MM1S cells (Homo sapiens, MM1.S, 72 h). Besides, the IC50 at c-Myc/Max/Ebox DNA worked out at 1.8 µM.
For the compound `CC(=O)OCOC(=O)c1ccc(Cl)cc1-n1c(C)ccc1C` [Compound 158], the EC50 in the test on H2171 cells (Homo sapiens, NCI-H2171, 72 h) was 70.3 µM; in the test on MM1S cells (Homo sapiens, MM1.S, 72 h), 238 µM. Besides, at c-Myc/Max/Ebox DNA, the IC50 was 206 µM.
Regarding `CC(=O)OCOC(=O)c1ccccc1N1CCN(C)CC1` [Compound 159], the EC50 with H2171 cells (Homo sapiens, NCI-H2171, 72 h) amounted to 84.1 µM; in the test on MM1S cells (Homo sapiens, MM1.S, 72 h) it was 209 µM.

For the origin of these results see patent US9567301B2, “Pyrrol-1-yl benzoic acid derivatives useful as myc inhibitors” (Whitehead Institute for Biomedical Research, priority 2012, dated 2017).
